Experimental data reported in patent publication US20240293430A1, “WITHAFERIN A AND IMMUNE CHECKPOINT BLOCKER COMBINATION THERAPIES” (University of South Florida, priority 2023, published 2024).
Like-named read-outs stand apart in the source and are kept apart here.

Legend:
[1] = system: WFA-mediated PD-L1 and ecto-CRT increase in NSCLC cell lines; experiment: ROS scavenger added to WFA, PD-L1 and ecto-CRT, NSCLC; assay type: cell-based, mouse (LLC), human (H1650, A549); conditions: 24 h; for effect on WFA-mediated PD-L1 increase: WFA + 5 mM scavenger, flow cytometry and qRT-PCR (NAC), flow cytometry (GSH)
Experimental: NSCLC cell lines were treated with WFA (0.6 μM in LLC, H1650 cells, 4 μM in A549 cells), or a combination of WFA+5 mM NAC for 24 h. (FIGS. 4A, 4D, 4G) The change in ROS levels were measured in LLC (FIG. 4A), H1650 (FIG. 4D), and A549 (FIG. G). (FIGS. 4B, 4E, 4H) by flow cytometry. The change in PD-L1 levels was measured in LLC (FIG. 4B), H1650 (FIG. 4E), and A549 (FIG. 4H) cell lines using flow cytometry and qRT-PCR. (FIG. 4C, 4F, 4I) Ecto-CRT levels were measured in LLC (FIG. 4C), H1650 (FIG. 4F), and A549 (FIG. 41) by flow cytometry. Means of two independent experiments ±SEM are shown, except for the PCR experiments that were repeated twice and for which one representative experiment is shown. Statistical significance was calculated using one-way ANOVA and a Fisher LSD post hoc test where * is p<0.05, ** is p<0.01,*** is p<0.001, and **** is p<0.0001.
All cells were treated with 0.6 μM WFA except A549, 4t1 and MDA-MB-231 cells which were treated with 4 μM, 1 μM, 2 μM WFA, respectively. […] PCR experiments were repeated twice, and one representative experiment is shown as mean±SEM of 3 technical replicates. Flow cytometry experiments were performed twice and the mean±SEM of two representative experiments is shown. Treatments were compared to the control using one-way ANOVA and Fisher LSD post hoc test. * p<0.05, ** p<0.01, *** p<0.001, **** p<0.0001.
To test our hypothesis, we treated NSCLC cell lines with WFA, NAC, or a combination of both.

[2] = system: PD-L1 upregulation in MC-38, HCT-116, 4T-1, and MDA-MB-231 cell lines; experiment: PD-L1 with WFA and NAC in colorectal and breast cancer cell lines; assay type: cell-based, mouse (MC-38, 4T1), human (HCT-116; conditions: 5 mM NAC; MC-38, HCT-116, 4T-1, MDA-MB-231
[3] = system: ROS levels in NSCLC cell lines; experiment: ROS levels with ROS indicator CM-H2DCFDA; assay type: cell-based, mouse (LLC), human (H1650; conditions: 24 h; WFA 0.6 μM (LLC, H1650), 4 μM (A549); NAC 5 mM
[4] = system: WFA-induced PD-L1 upregulation in NSCLC cells; experiment: Pharmacologic inhibitors added to WFA, PD-L1 by flow cytometry; assay type: cell-based, mouse (LLC), human (H1650, A549)

N[C@@H](CCC(=O)N[C@@H](CS)C(=O)NCC(=O)O)C(=O)O [Glutathione, L-Glutathione]
effect on WFA-mediated PD-L1 increase [1]: abrogated

CC(=O)N[C@@H](CS)C(=O)O [NAC, N-acetyl cysteine, reference compound]
effect on WFA-induced ecto-CRT expression ([1]; WFA + 5 mM NAC): completely reversed | effect on WFA-mediated PD-L1 increase [1]: completely reversed | effect on WFA-mediated PD-L1 upregulation [2]: completely reversed | ROS levels [3]: reduced

O=[N+]([O-])c1ccc2c(c1)S(=O)(=O)C=C2 [STATTIC]
effect on WFA-induced PD-L1 upregulation ([4]; WFA + inhibitor, 24 h, STATTIC: LLC, H1650, PX-478: LLC, brusatol: LLC, H1650, A549): neither STATTIC nor PX-478 were able to reverse

Brusatol
effect on WFA-induced PD-L1 upregulation [4]: completely abrogated
